We go through one compound from patent US20140243415A1, “COMPOUNDS INHIBITING GALECTIN-1 EXPRESSION, CANCER CELL PROLIFERATION, INVASION, AND TUMORIGENESIS” (ONCOETHIX SA, priority 2011, published 2014).

Molecules are shown by their SMILES.

One assay deals with endothelial cell. To be noted: endothelial cell proliferation, migration, chick embryo chorioallantoic membrane assays; cited from earlier work.
The next assay relates to SQ-shGal1 cells. The assay is described as follows: Antiproliferative effects in galectin-1 silenced cells. The assay is classed as cell-based, human. To be noted: SQ-shGal1 cells in vitro. Here is the method:
Galectin-1 shRNA, Semaphorin-3A shRNA and scrambled shRNA plasmids were purchased from Santa Cruz Biotechnology (Santa Cruz, Calif., USA) and transfected into cells using the manufacturer's shRNA transfection protocol. Briefly, a mix of 1 μg shRNA plasmid DNA solution and lpl shRNA plasmid transfection reagent were incubated 45 minutes at room temperature and then added on 50% confluent cells with shRNA plasmid transfection medium. After 6 hours incubation at 37° C., normal growth medium containing double serum and antibiotics concentration was added. After 24 h, the stably transfected cells were selected with puromycin.
SQ-shGal1 cells were developed from SQ20B using a small hairpin GAL1-RNA silencing transfection. SQ-shGal1 cells display no difference in cell doubling-time and cloning capacity but expressed lower galectin-1 expression and invasive capacity in matrigel as compared to SQ20B (FIG. 8). […] As shown in FIG. 6C-left, silencing galectin-1 expression in mice was associated with a decreased development of secondary tumors as compared to parental SQ20B tumors. SQ-shGal1 cancer cells in tumors expressed lower level of Ki67 and VEGFR-2 expressions (FIG. 6D).

Another assay concerns MCF7-shWISP. The assay is described as follows: Antiproliferative effects, shWISP model. To be noted: MCF7-shWISP vs MCF7. The assay is classed as cell-based, human. The text has this:
FIG. 2. Epithelial-to-mesenchymal differentiation and OTX-008 sensitivity. A—Correlations between galectin-1 (LGALS1) and vimentin, E-cadherin (CDH1) and N-cadherin (CDH2) relative mRNA expression. B—Correlations between OTX-008 IC50s and vimentin, E-cadherin (CDH1) and N-cadherin (CDH2) relative mRNA expression. C—Antiproliferative effects of OTX-008 in epithelial COLO205-S and mesenchymal COLO205-R colon cancer cells. D—Antiproliferative effects of OTX-008 in SNAIL-inducible colon cancer cell lines. E—Antiproliferative effects of OTX-008 in shWISP breast cancer cell lines.
Cell survival was determined using the MTT assay (3-[4,5-dimethylthiazol-2-yl]-2,5-diphenyltetrazolium bromide; Sigma, Saint-Quentin Fallavier, France). The conversion of yellow water-soluble tetrazolium MTT into purple insoluble formazan is catalyzed by mitochondrial dehydrogenases and used to estimate the number of viable cells. In brief, cells were seeded in 96-well tissue culture plates at a density of 2×10^3 cells/well. […] After incubation, the supernatant was discarded, insoluble formazan precipitates were dissolved in 0.1 ml of DMSO and the absorbance was measured at 560 nm by use of a microplate reader (Thermo, France). […] IC50's were determined as the halves of maximal inhibitory drug concentration for each cell line. […]

The subject of another assay is SQ20B cells. The assay is described as follows: In vitro growth inhibition assay. The assay is classed as cell-based, human. To be noted: SQ20B, OTX-008 added to semaphorin-3A or lactose. The method, then:
FIG. 5. Modulation of the galectin-1/semaphorin-3A/neuropilin system in SQ20B cells. A—Effects of galectin-1 (Gall), semaphorin-3A (Sema3A), lactose, with or without four different concentrations of OTX-008 on SQ20B growth at day 6. Embedded figure: Proliferation assay of SQ20B and SQ-shGAL1. B—In vitro matrigel invasion assay of SQ20B exposed to […] galectin-1, 1 μg/ml semaphorin-3A, 200 ng/ml lactose or 10 μM UO126 with or without 3 μM OTX-008. Embedded figure: In vitro matrigel invasion assay of SQ20B and SQ-shGAL1. Invasion was quantified after 48 h by counting the average number of invaded cells.
For proliferation assay, cells were seeded in 96-well tissue culture plates at a density of 1.5×10^3 cells/well. MTT assay was conducted daily to determine the number of viable cells in untreated control and treated group. Growth inhibition curves were plotted as a percentage of cells for each experimental condition.
Galectin-1 may form extracellular lattices counteracting the inhibitory properties of semaphorin-3A on neuropilin-1, eventually leading to the modulation of the vascular endothelial growth factor (VEGFR) and platelet derived growth factor (PDGFR) receptors, fibronectin, and laminin activity SQ20B cells expressed significant mRNA and protein levels of semaphorin-3A and neuropilin-1, PDGFRa&(, VEGF A-D, and VEGFR1-3 (Supplementary FIG. 2A). Thus, SQ20B cells were selected to evaluate the effects of OTX-008 on galectin-1/semaphorin-3A interactions. No difference between SQ20B cells growing in plastic or fibronectin- and laminin-coated plates. […] Galectin-1 and semaphorin-3A induced invasion was inhibited by OTX-008 mimicking the effects of lactose in this model.

For the compound `CN(C)CCNC(=O)COc1c2cccc1Cc1cccc(c1OCC(=O)NCCN(C)C)Cc1cccc(c1OCC(=O)NCCN(C)C)Cc1cccc(c1OCC(=O)NCCN(C)C)C2` [OTX-008], the “angiogenesis inhibition in vitro” value in the assay on endothelial cell is given as “potent angiogenesis inhibitor”. For the same compound, the “antiproliferative effects in galectin-1 silenced cells” value in the assay with SQ-shGal1 cells was “does not further increase its antiproliferative effects”. Moreover, in the assay with MCF7-shWISP, the “effect of WISP inhibition on sensitivity” value is “marked resistance to high concentrations of the drug”. Further, the “antiproliferative effects in combination with semaphorin-3A or lactose” value with SQ20B cells is “enhanced the antiproliferative effects”.
